A short description of the test: Inhibition of C-KIT V654A/560-576 deletion mutant in human GIST-430/654 cells assessed as reduction in c-Kit autophosphorylation at […] residue incubated for 45 mins by Luminex bead based assay. It counts as cell-based. The conditions noted are these: GIST-430/654, 0.75 h.

Structures are written as SMILES.

For orientation: IC50 means the concentration that inhibits the measured activity by half.

`Cn1ncc(-c2ccc(CNc3cc(-c4cnc5cc(OCCCN6CCCC6)ccn45)ncn3)cc2)n1`: the IC50 stood at 45 nM.

As to `COc1ccn2c(-c3cc(NCc4ccc(-c5cnn(C)c5)cc4)ncn3)cnc2c1`, the IC50 is 55 nM.

In the case of `COCCN1CCC(COc2ccn3c(-c4cc(NCc5ccc(-c6cnn(C)n6)cc5)ncn4)cnc3c2)CC1`, the IC50 turned out to be 39 nM.

As for `CNC1CN(c2ccn3c(-c4cc(NCc5ccc(-c6cnn(C)c6)cc5)ncn4)cnc3c2)C1`, the IC50 worked out at 140 nM.

Take `COc1ccn2c(-c3cc(NCc4ccc(-c5cnn(C)n5)cc4)ncn3)cnc2c1`: the IC50 came out at 78 nM.

As to `Cc1nc(-c2ccc(CNc3cc(-c4cnc5cc(OCCO)ccn45)ncn3)cc2)co1`, the IC50 was found to be 74 nM.

Consider `Cn1ncc(-c2ccc(CNc3cc(-c4cnc5cc(OCCN6CC7(COC7)C6)ccn45)ncn3)cc2)n1`, for which the IC50 came to 40 nM.

Turning to `CN1CC(COc2ccn3c(-c4cc(NCc5ccc(-c6cnn(C)c6)cc5)ncn4)cnc3c2)C1`, the IC50 worked out at 61 nM.

In the case of `Cn1cc(-c2ccc(CNc3cc(-c4cnc5cc(OCCN6CCC[C@@H]7OCC[C@@H]76)ccn45)ncn3)cc2)cn1`, the IC50 came to 100 nM.

In the case of `Cn1cc(-c2ccc(CNc3cc(-c4cnc5cc(OC6CCOC6)ccn45)ncn3)cc2)cn1` (configuration not stated), the IC50 is 270 nM.

On to `c1ccn2c(-c3cc(NCc4ccc(-n5cccn5)cc4)ncn3)cnc2c1`, for which the IC50 is 190 nM.

As to `Cn1cc(-c2ccc(CNc3cc(-c4cnc5cc(CCN6CCN(C7COC7)CC6)ccn45)ncn3)cc2)cn1`, the IC50 amounted to 330 nM.

The record behind these values is ChEMBL document CHEMBL4823309, “The Potential of c-KIT Kinase inhibitors in Cancer Treatment” (ACS Med Chem Lett, 2021).
